Laboratory results reported in the NIST ThermoML archive (doi:10.1021/je900306v).

Settings: Liquid, Closed cell (Static) method

FCC(F)(F)F [1,1,1,2-tetrafluoroethane]
Settings	vapor or sublimation pressure [kPa]
243.1 K	84.23
248.08 K	106.12
263.01 K	199.39
283.03 K	412.95
303.12 K	769.5
328.05 K	1488
352.93 K	2620.8

C=C(F)C(F)(F)F [2,3,3,3-tetrafluoro-1-propene]
Settings	vapor or sublimation pressure [kPa]
224.12 K	38.9
228.21 K	48.3
233.12 K	62
234.21 K	65.5
238.08 K	78.7
243.03 K	98.8
247.95 K	121.7
252.91 K	149.2
255.49 K	165.3
257.7 K	180.4
258.61 K	186.9
263.14 K	221.7
268.1 K	265.1
272.98 K	313.9
277.96 K	370.5
283.09 K	437.1
288.08 K	509.4
292.87 K	587.3
297.97 K	679.4
303.12 K	783.2
308.11 K	894.6
313.09 K	1018
315.59 K	1083.5
318.08 K	1153
320.61 K	1224
323.11 K	1301.1
325.58 K	1380
333.06 K	1638.3
338.05 K	1831
343.02 K	2039
348.01 K	2265.6
352.98 K	2511.5
357.97 K	2778.2
362.94 K	3067.1
365.93 K	3218.4
